Reference: patent US4057684A, “Alkyl amino-glucopyranoside derivative and process for producing the same” (priority 1975, dated 1977)

Key:
[1] = peripheral white blood cell counts (bone marrow toxicity) and survival in normal male ICR mice; type: in vivo, mouse (ICR)
Protocol: Such peripheral white blood cell counts were performed as follows: Normal male ICR mice were used in groups of tens and the test compounds for treatment were made into their respective solutions. 2MCαG and 6MCαG were dissolved in physiological saline solutions, while CCNU and GCNU were suspended in 0.5% CMC aqueous solution and 50% PEG aqueous solution, respectively. A single administration at volume of 1 ml per 100 g body weight of animal (0.1 ml/10 g) was given intraperitoneally, and the peripheral white blood cell counts were performed 3, 8 and 15 days after administration of the test compounds.

bacteria = experiment: antibacterial activity, broth dilution method
[2] = acute toxicity (LD50) in mice; type: in vivo, mouse (ICR)
[3] = test system: Nakahara-Fukuoka sarcoma (NFS); experiment: antitumor effect against Nakahara-Fukuoka sarcoma (NFS) implanted in mice; type: in vivo, mouse (ICR)
Description: (§1) Results of pharmacological studies for amino-glucopyranoside [I] according to the invention are described below. The test compounds which were used included methyl N-carbamyl-N'-(2-chloroethyl)-N'-nitroso-2-amino-2-deoxy-α-D-glucopyranoside and methyl N-carbamyl-N'-(2-chloroethyl)-N'-nitroso-6-amino-6-deoxy-α-D-glucopyranoside (hereinafter abbreviated to 2MCαG and 6MCαG, respectively). The control compounds which were employed were 1-(2-chloroethyl)-3-cyclohexyl-1-nitrosoourea (hereinafter abbreviated to CCNU), which had been widely applied as a control compound in such a pharmacological test of the streptozotocin derivatives, and GCNU referred to previously. The tumor systems which were used were leukemia L-1210, Nakahara-Fukuoka sarcoma, adenocarcinoma-755, ascites sarcoma 180 and Ehrlich ascites carcinoma (hereinafter abbreviated to L-1210, NFS, Ca-755, S-180A and EAC, respectively), and the antitumor activities were determined by a procedure of the National Cancer Center, Tokyo (A. Hoshi et al.: Farumashia 9, 464(1973)). The test animals which were used were ICR and BDF1 mice.
(§2) ^a Treatment was initiated 24 hr after implantation of tumor (day 1):
(§3) D1~5 = qd, day 1~5; D1 = day 1 only.
(§4) ^b T/C is expressed as the tumor weight ratio in solid tumors or tota
(§5) packed cell volume ratio in ascites tumors of treated/control.

leukemia L-1210 = experiment: increase in life span and survival of leukemia L-1210 implanted mice; type: in vivo, mouse (BDF1)
Description: as §1, §2, §3
^d % increase in life span (mean survival time) over controls.
^e 60 days survivors/total in treated group.

[4] = test system: adenocarcinoma-755 (Ca-755); experiment: antitumor effect against adenocarcinoma-755 (Ca-755) implanted in mice; type: in vivo, mouse (BDF1)
Description: as §1, §2, §3, §4, §5

[5] = blood sugar level / diabetogenic activity; type: in vivo, rat (male Wister); details: rat, in vivo
[6] = test system: solid as well as ascites tumor systems; experiment: antitumor activity in the tumor systems (overall); type: in vivo, mouse; details: mouse, in vivo
Description: as §1

[7] = 12.5 mg/kg/day ip D1~5, ICR mice
[8] = 25.0 mg/kg/day ip D1~5, ICR mice
[9] = 35.0 mg/kg/day ip D1~5, ICR mice
[10] = 50.0 mg/kg/day ip D1~5, ICR mice
[11] = 6.3 mg/kg/day ip D1~5, BDF1 mice
[12] = 12.5 mg/kg/day ip D1~5, BDF1 mice
[13] = 25.0 mg/kg/day ip D1~5, BDF1 mice
[14] = 50.0 mg/kg/day ip D1~5, BDF1 mice

CO[C@H]1O[C@H](CNC(=O)N(CCCl)N=O)[C@@H](O)[C@H](O)[C@H]1O [Example 6MCαG, methyl N-carbamyl-N'-(2-chloroethyl)-N'-nitroso-6-amino-6-deoxy-α-D-glucopyranoside]
Death rate (death/used) ([1]; 40 mg/kg ip single): 0/10
Average count of WBC ([1]; 40 mg/kg ip single, day 3): 73.2±3.5 x 10^2 WBC/mm^3
Average count of WBC ([1]; 40 mg/kg ip single, day 8): 105.7±3.8 x 10^2 WBC/mm^3
Average count of WBC ([1]; 40 mg/kg ip single, day 15): 136.9±10.0 x 10^2 WBC/mm^3
Death rate (death/used) ([1]; 60 mg/kg ip single): 0/10
Average count of WBC ([1]; 60 mg/kg ip single, day 3): 41.1±4.1 x 10^2 WBC/mm^3
Average count of WBC ([1]; 60 mg/kg ip single, day 8): 73.5±5.8 x 10^2 WBC/mm^3
Average count of WBC ([1]; 60 mg/kg ip single, day 15): 110.4±6.3 x 10^2 WBC/mm^3
Death rate (death/used) ([1]; 100 mg/kg ip single): 2/10
Average count of WBC ([1]; 100 mg/kg ip single, day 3): 31.2±2.5 x 10^2 WBC/mm^3
Average count of WBC ([1]; 100 mg/kg ip single, day 8): 71.9±4.9 x 10^2 WBC/mm^3
Average count of WBC ([1]; 100 mg/kg ip single, day 15): 99.8±10.8 x 10^2 WBC/mm^3
Death rate (death/used) ([1]; 150 mg/kg ip single): 10/10
Average count of WBC ([1]; 150 mg/kg ip single, day 3): 28.1±3.8 x 10^2 WBC/mm^3
Average count of WBC ([1]; 150 mg/kg ip single, day 8): 61.0 x 10^2 WBC/mm^3
incidence of leukopenia ([1]; LD10 doses): comparatively mild with rapid return to pretreatment levels
acute toxicity compared with GCNU or CCNU ([1]; mouse, in vivo): much lower than that of either GCNU or CCNU
bone marrow toxicity ([1]; mouse, in vivo): improved bone marrow toxicity
bone marrow toxicity compared with CCNU ([1]; mouse, in vivo): less toxic
bone marrow toxicity compared with GCNU ([1]; mouse, in vivo): equivalent values as GCNU
antibacterial activity (bacteria): free from diabetogenic and antibacterial activities
toxicity compared with 2MCαG ([2]; by LD50, single administration): less toxic than 2MCαG
LD50 ([2]; mouse, in vivo, single administration): 91 mg/kg
Activity [3, 7]: - (100~71% = -)
T/C [3, 7]: 77.8%
Activity [3, 8]: + (70~51% = +)
T/C [3, 8]: 61.6%
Activity [3, 9]: ++ (50~21% = ++)
T/C [3, 9]: 38.8%
Activity [3, 10]: Toxic
T/C [3, 10]: 34.1%
died/used [3, 10]: 6/6
antitumor effect compared with CCNU ([3]; ip, 5 successive days): more active than CCNU
ILS (leukemia L-1210; 3.0 mg/kg/day ip D1~5): > 292%
Survivors (60 days survivors/total) (leukemia L-1210; 3.0 mg/kg/day ip D1~5): 2/6
ILS (leukemia L-1210; 6.0 mg/kg/day ip D1~5): > 639%
Survivors (60 days survivors/total) (leukemia L-1210; 6.0 mg/kg/day ip D1~5): 3/6
ILS (leukemia L-1210; 6.0 mg/kg/day po D1~5): > 580%
Survivors (60 days survivors/total) (leukemia L-1210; 6.0 mg/kg/day po D1~5): 4/6
ILS (leukemia L-1210; 10.0 mg/kg/day ip D1~5): > 645%
Survivors (60 days survivors/total) (leukemia L-1210; 10.0 mg/kg/day ip D1~5): 3/6
ILS (leukemia L-1210; 12.5 mg/kg/day ip D1~5): > 520%
Survivors (60 days survivors/total) (leukemia L-1210; 12.5 mg/kg/day ip D1~5): 4/6
ILS (leukemia L-1210; 12.5 mg/kg/day po D1~5): > 570%
Survivors (60 days survivors/total) (leukemia L-1210; 12.5 mg/kg/day po D1~5): 4/6
ILS (leukemia L-1210; 25.0 mg/kg/day ip D1~5): > 615%
Survivors (60 days survivors/total) (leukemia L-1210; 25.0 mg/kg/day ip D1~5): 4/6
ILS (leukemia L-1210; 25.0 mg/kg/day po D1~5): > 620%
Survivors (60 days survivors/total) (leukemia L-1210; 25.0 mg/kg/day po D1~5): 4/6
ILS (leukemia L-1210; 35.0 mg/kg ip D1 only): > 717%
Survivors (60 days survivors/total) (leukemia L-1210; 35.0 mg/kg ip D1 only): 6/6
ILS (leukemia L-1210; 40.0 mg/kg/day ip D1~5): > 237%
Survivors (60 days survivors/total) (leukemia L-1210; 40.0 mg/kg/day ip D1~5): 2/6
ILS (leukemia L-1210; 45.0 mg/kg ip D1 only): > 717%
Survivors (60 days survivors/total) (leukemia L-1210; 45.0 mg/kg ip D1 only): 6/6
ILS (leukemia L-1210; 6-25 mg/kg/day, 5 successive administrations, ip or orally): 520-645%
activity against L-1210 compared with CCNU and GCNU (leukemia L-1210; mouse, in vivo): more active against L-1210
ILS (leukemia L-1210; single ip, 35-45 mg/kg): 717%
animals survived (leukemia L-1210; single ip, 35-45 mg/kg): all six animals survived
Activity [4, 11]: + (70~51% = +)
T/C [4, 11]: 53.4%
Activity [4, 12]: +++ (20~0% = +++)
T/C [4, 12]: 16.3%
Activity [4, 13]: +++ (20~0% = +++)
T/C [4, 13]: 7.6%
Activity [4, 14]: Toxic
T/C [4, 14]: 0%
died/used [4, 14]: 6/6
antitumor effect compared with CCNU ([4]; ip, 5 successive days): more active than CCNU
diabetogenic activity [5]: free from diabetogenic
antitumor activity [6]: activity against solid as well as ascites tumor systems
